# Where “and” joins values, the source holds several entries; their conditions need not be identical. Identical values can stand only once. Like-named read-outs stand apart in the source and are kept apart here.
# Tests used:
# Aspergillus niger = assay: USP Antimicrobial Effectiveness Test (AET), MSM in TSB; format: cell-based; parameters: key to AET microorganism count: Colonies too numerous to count (TNTC); details: for Log Reduction from Initial Microorganism Inoculum: 1:10 dilution of MSM, 14, 28 Days; for AET microorganism count: 48 hrs
# Excerpt: Compounds or formulated products having antimicrobial activity may be evaluated with the United States Pharmacopeia (USP) Antimicrobial Effectiveness Test (AET). The AET involves the addition of specified microorganisms (Candida albicans, Aspergillus niger, Escherichia coli, Pseudomonas aeruginosa and Staphylococcus aureus) directly to a test product at relatively high concentrations to simulate contamination. The product is held for one month, with weekly analysis of microorganism levels. Depending on the route of administration of a product, satisfaction of the AET generally requires a 1 to 3 log reduction in bacteria from initial levels, which should occur in one to two weeks, with no further increase in bacteria after two weeks. For yeast and mold, no increase from the initial inoculums level is permitted.
# Inoculations were made using Candida albicans, Aspergillus niger, Escherichia coli, Pseudomonas aeruginosa and Staphylococcus aureus. Tryptic soy broth (TSB) was used as the culturing media. […] The inoculated media was held for one month, during which time the added microorganisms were enumerated weekly to determine if they were growing, dying off, or remaining near the initial inoculation level. Data points were measured in triplicate at 48 hours, 3, 5, 14, 20, 28, and 30 days. The acceptance criteria for antimicrobial effectiveness are described in detail in the USP, herein incorporated by reference.
# [1] = tested on: normal flora found in the product; details: for Log Growth: rows 0.5-10% MSM
# E. coli = assay: Log growth in Müller-Hinton media with or without NaCl; format: cell-based, Escherichia coli
# Procedure: Standard Müller-Hinton media was compared to Müller-Hinton media supplemented with NaCl to the same level as the saline-based media of Example 4. […] After inoculation of each MSM-containing media type with 1.9×10^7 cfu/mL of E. coli, the cultures were incubated at 35° C. for seven days. Aliquots of each culture were taken at 24 and 48 hours, as well as 7 days.
# [2] = tested on: Escherichia coli (ATCC strain 8739); assay: Growth profile in sterile/non-sterile MSM media, streaked on MacConkey agar; format: cell-based; details: 5-16% MSM
# Procedure: Tubes were incubated at 25° C.
# [3] = tested on: Lactobacillus acidophilus milk; assay: Growth in simulated gastric acid supplemented with MSM; details: for Log Growth of L. acidophilus in milk average / Log Growth of L. acidophilus in milk in duplicate: simulated gastric acid
# Escherichia coli = assay: USP <51> AET in cosmetic cream/composition; format: cell-based; details: for AET microorganism count: 48 hrs-28 days; for Log Reduction from Initial Microorganism Inoculum: 14, 28 Days
substance,measurement,setting,value
Methylsulfonylmethane [MSM],Log Reduction from Initial Microorganism Inoculum,Aspergillus niger; 14 days after inoculation,4.3 log
same,Log Reduction from Initial Microorganism Inoculum,Aspergillus niger; 28 days after inoculation,4.5 log
same,AET microorganism count,Aspergillus niger; 1:100 dilution of MSM,TNTC*
same,AET microorganism count,Aspergillus niger; 1:1000 dilution of MSM,TNTC*
same,Log Growth of 40% Milk Fat,"[1]; 0.5% MSM, day 0",0.00 logs
same,Log Growth of 40% Milk Fat,"[1]; 0.5% MSM, day 7",0.35 logs
same,Log Growth of 40% Milk Fat,"[1]; 0.5% MSM, day 14",2.32 logs
same,Log Growth of 40% Milk Fat,"[1]; 0.5% MSM, day 21",4.46 logs
same,Log Growth of 40% Milk Fat,"[1]; 0.5% MSM, day 24",4.02 logs
same,Log Growth of 40% Milk Fat,"[1]; 0.5% MSM, day 28",1.95 logs
same,Log Growth of 40% Milk Fat,"[1]; 1.0% MSM, day 7",0.00 logs
same,Log Growth of 40% Milk Fat,"[1]; 1.0% MSM, day 14",2.37 logs
same,Log Growth of 40% Milk Fat,"[1]; 1.0% MSM, day 21",4.35 logs
same,Log Growth of 40% Milk Fat,"[1]; 1.0% MSM, day 24",3.33 logs
same,Log Growth of 40% Milk Fat,"[1]; 1.0% MSM, day 28",3.86 logs
same,Log Growth,"[1]; 2% Milk Fat, day 7",1.59 log
same,Log Growth of 40% Milk Fat,"[1]; 5.0% MSM, day 0",0.00 logs
same,Log Growth of 40% Milk Fat,"[1]; 5.0% MSM, day 7",0.80 logs
same,Log Growth of 40% Milk Fat,"[1]; 5.0% MSM, day 14",0.50 logs
same,Log Growth of 40% Milk Fat,"[1]; 5.0% MSM, day 21",1.25 logs
same,Log Growth of 40% Milk Fat,"[1]; 5.0% MSM, day 24",1.03 logs
same,Log Growth of 40% Milk Fat,"[1]; 5.0% MSM, day 28",0.35 logs
same,Log Growth of 40% Milk Fat,"[1]; 10.0% MSM, day 0",0.00 logs
same,Log Growth of 40% Milk Fat,"[1]; 10.0% MSM, day 7",0.00 logs
same,Log Growth of 40% Milk Fat,"[1]; 10.0% MSM, day 14",1.95 logs
same,Log Growth of 40% Milk Fat,"[1]; 10.0% MSM, day 21",4.45 logs
same,Log Growth of 40% Milk Fat,"[1]; 10.0% MSM, day 24",0.85 logs
same,Log Growth of 40% Milk Fat,"[1]; 10.0% MSM, day 28",0.35 logs
same,lower than the control by,"[1]; 40% milk product, Day 21, 5.0% MSM",3.22 logs
same,microbial load,"[1]; 40% milk product, Day 21, […] MSM",2.16 logs
same,microbial count,"[1]; 40% milk product, Day 28, 5.0% and 10.0% MSM",0.35 logs
same,Log Growth,"[1]; Nonfat Milk, day 7",1.00 log
same,Log Growth of 40% Milk Fat,"[1]; […] MSM, day 0",0.00 logs
same,Log Growth of 40% Milk Fat,"[1]; […] MSM, day 7",0.00 logs
same,Log Growth of 40% Milk Fat,"[1]; […] MSM, day 14",0.00 logs
same,Log Growth of 40% Milk Fat,"[1]; […] MSM, day 21",2.16 logs
same,Log Growth of 40% Milk Fat,"[1]; […] MSM, day 24",3.79 logs
same,Log Growth of 40% Milk Fat,"[1]; […] MSM, day 28",0.95 logs
same,log reduction from the initial inoculum,"E. coli; 24 hours, all media, MSM greater than 13%",approximately 1 log
same,reduced E. coli growth by,"E. coli; 48 hours, MSM greater than 13%",1-2 logs
same,log reduction in E. coli,"E. coli; 7 days, FMHS, 12% MSM",3 log
same,Growth profile of E. coli,"[2]; 24 hours, NS (sterile saline + non-sterile MSM), 8% MSM",Heavy
same,Growth profile of E. coli,"[2]; 24 hours, NS (sterile saline + non-sterile MSM), 12% MSM",Moderate
same,Growth profile of E. coli,"[2]; 24 hours, NSA (saline + MSM, then sterilized), 8% MSM",Heavy
same,Growth profile of E. coli,"[2]; 24 hours, NSA (saline + MSM, then sterilized), 12% MSM",Moderate
same,Growth profile of E. coli,"[2]; 24 hours, TSB (sterile TSB + non-sterile MSM), 8% MSM",Heavy
same,Growth profile of E. coli,"[2]; 24 hours, TSB (sterile TSB + non-sterile MSM), 10% MSM",Moderate
same,Growth profile of E. coli,"[2]; 24 hours, TSB (sterile TSB + non-sterile MSM), 11% MSM",Few
same,Growth profile of E. coli,"[2]; 24 hours, TSBA (TSB + MSM, then sterilized), 8% MSM",Heavy
same,Growth profile of E. coli,"[2]; 24 hours, TSBA (TSB + MSM, then sterilized), 10% MSM",Moderate
same,Growth profile of E. coli,"[2]; 24 hours, TSBA (TSB + MSM, then sterilized), 11% MSM",Few
same,Growth profile of E. coli,"[2]; 48 hours, NS, 8% MSM",Heavy
same,Growth profile of E. coli,"[2]; 48 hours, NS, 12% MSM",Moderate
same,Growth profile of E. coli,"[2]; 48 hours, NSA, 8% MSM",Heavy
same,Growth profile of E. coli,"[2]; 48 hours, NSA, 12% MSM",Moderate
same,Growth profile of E. coli,"[2]; 48 hours, TSB, 8% MSM",Heavy
same,Growth profile of E. coli,"[2]; 48 hours, TSB, 11% MSM",Moderate
same,Growth profile of E. coli,"[2]; 48 hours, TSB, 12% MSM",Few
same,Growth profile of E. coli,"[2]; 48 hours, TSBA, 8% MSM",Heavy
same,Growth profile of E. coli,"[2]; 48 hours, TSBA, 11% MSM",Moderate
same,Growth profile of E. coli,"[2]; 48 hours, TSBA, 12% MSM",Few
same,Growth profile of E. coli,"[2]; 72 hours, NS, 8% MSM",Heavy
same,Growth profile of E. coli,"[2]; 72 hours, NS, 12% MSM",Moderate
same,Growth profile of E. coli,"[2]; 72 hours, NSA, 8% MSM",Heavy
same,Growth profile of E. coli,"[2]; 72 hours, NSA, 12% MSM",Moderate
same,Growth profile of E. coli,"[2]; 72 hours, TSB, 8% MSM",Heavy
same,Growth profile of E. coli,"[2]; 72 hours, TSB, 11% MSM",Moderate
same,Growth profile of E. coli,"[2]; 72 hours, TSB, 12% MSM",Few
same,Growth profile of E. coli,"[2]; 72 hours, TSBA, 8% MSM",Heavy
same,Growth profile of E. coli,"[2]; 72 hours, TSBA, 11% MSM",Moderate
same,Growth profile of E. coli,"[2]; 72 hours, TSBA, 12% MSM",Few
same,Log Growth of L. acidophilus in milk average,"[3]; 5% MSM, 0 hours",0.41 logs
same,Log Growth of L. acidophilus in milk average,"[3]; 5% MSM, 3 hours",0.41 logs
same,Log Growth of L. acidophilus in milk average,"[3]; 5% MSM, 6 hours",0.91 logs
same,Log Growth of L. acidophilus in milk in duplicate,"[3]; 5% MSM, 6 hours",0.82 logs and 1 logs
same,Log Growth of L. acidophilus in milk average,"[3]; 5% MSM, 9 hours",0.52 logs
same,Log Growth of L. acidophilus in milk in duplicate,"[3]; 5% MSM, 9 hours",0.52 logs
same,Log Growth of L. acidophilus in milk average,"[3]; 5% MSM, 12 hours",1.10 logs
same,Log Growth of L. acidophilus in milk average,"[3]; 5% MSM, 15 hours",1.43 logs
same,Log Growth of L. acidophilus in milk in duplicate,"[3]; 5% MSM, 15 hours",1.43 logs
same,Log Growth of L. acidophilus in milk average,"[3]; 5% MSM, 24 hours",1.66 logs
same,Log Growth of L. acidophilus in milk in duplicate,"[3]; 5% MSM, 24 hours",1.67 logs and 1.64 logs
same,Log Growth of L. acidophilus in milk average,"[3]; 5% MSM, 48 hours",1.33 logs
same,Log Growth of L. acidophilus in milk in duplicate,"[3]; 5% MSM, 48 hours",1.22 logs and 1.43 logs
same,decrease in growth,"[3]; 5.0% MSM, Hour 48",0.33 logs
same,increase in growth,"[3]; 5.0% MSM, at 24 hours",0.23 logs
same,Log Growth of L. acidophilus in milk average,"[3]; […] MSM, 0 hours",0 logs
same,Log Growth of L. acidophilus in milk in duplicate,"[3]; […] MSM, 0 hours",0 logs
same,Log Growth of L. acidophilus in milk average,"[3]; […] MSM, 9 hours",0.41 logs
same,decrease in growth,"[3]; […] MSM, Hour 48",0.38 logs
same,decrease in growth,"[3]; […] MSM, at 24 hours",0.11 logs
same,increase in growth,"[3]; printed […] MSM, at 24 hours",0.30 logs
same,AET microorganism count,"Escherichia coli; 10% MSM in Preservative Free Cosmetic Composition #1, 48 hours after inoculation",5.4 × 10^4
same,AET microorganism count,"Escherichia coli; 10% MSM in Preservative Free Cosmetic Composition #1, 7 days after inoculation",<10
same,AET microorganism count,Escherichia coli; 10% MSM in cosmetic cream without preservative,<10
same,Log Reduction from Initial Microorganism Inoculum,Escherichia coli; 10% MSM in preservative-free jojoba cream,5.7 log
same,Log Reduction from Initial Microorganism Inoculum,"Escherichia coli; 10% MSM, Composition #1",5.8 log
same,Log Reduction from Initial Microorganism Inoculum,"Escherichia coli; 10% MSM, Composition #2",5.8 log

# From patent US20110105623A1 (Biogenic Innovations, LLC, priority 2009, published 2011)
